From the NIST ThermoML archive (doi:10.1021/je700662a)
Several values for one entry are separate records, joined by “and”; a condition that tells them apart may be missing. Equal entries are not always repeated. ± gives the expanded uncertainty stated by the source.

What was measured:
[1] = Molar enthalpy of transition or fusion; settings: DSC
[2] = molar heat capacity at constant pressure; settings: 101.33 kPa, Large sample (1 g) DSC
[3] = DTA

CC(C)(C)C(N)=O [2,2-dimethylpropanamide]
Crystal
Settings	Molar enthalpy of transition or fusion	Normal melting temperature
[1]	24.1 kJ/mol and 25.6 kJ/mol	–
[3]	–	152.2 ± 0.4 °C and 152.5 ± 0.4 °C

[2], Crystal
Settings	molar heat capacity at constant pressure [J/K/mol]
188 K	115.7 ± 2.2
193 K	117.6 ± 1.9
198 K	120.8 ± 2.5
203 K	123 ± 2.2
208 K	124.8 ± 2.5
213 K	126.4 ± 2.1
218 K	129.1 ± 2.2
223 K	131.5 ± 2.1
228 K	133.4 ± 2.6
233 K	136.6 ± 2.2
238 K	137.9 ± 2.2
243 K	140.2 ± 2.6
248 K	142.8 ± 2.3
253 K	144.5 ± 2.7
258 K	147.5 ± 2.4
263 K	149.2 ± 2.7
268 K	150.9 ± 2.5
273 K	153.8 ± 2.7
278 K	156.3 ± 2.4
283 K	158.3 ± 2.5
288 K	161.1 ± 2.6
293 K	163 ± 2.7
298 K	163.7 ± 2.7
303 K	165.4 ± 2.7
308 K	167.9 ± 2.7
313 K	170.2 ± 2.6
318 K	172.7 ± 2.7
323 K	174.2 ± 2.7

CCCCC(N)=O [pentanamide]
Settings	Molar enthalpy of transition or fusion, Crystal 1	Molar enthalpy of transition or fusion, Crystal 2	Molar enthalpy of transition or fusion, Crystal 3 [kJ/mol]	Normal melting temperature, Crystal 1	Triple point temperature, Crystal 2	Triple point temperature, Crystal 3 [K]
[1]	17.9 kJ/mol and 19.3 kJ/mol	1.2 kJ/mol and 1.06 kJ/mol	1.9 ± 0.3	–	–	–
[3]	–	–	–	104.1 ± 0.4 °C and 103.6 ± 0.9 °C	365 ± 1 K and 365.4 ± 0.4 K	211.8 ± 0.9

[2]
Settings	molar heat capacity at constant pressure [J/K/mol]
183 K, Crystal 3	111.5 ± 1.7
188 K, Crystal 3	116.1 ± 1.8
193 K, Crystal 3	118.5 ± 2.3
198 K, Crystal 3	122.5 ± 1.9
203 K, Crystal 3	128.9 ± 2
208 K, Crystal 3	133.1 ± 2.1
213 K, Crystal 2	139.1 ± 2.2
218 K, Crystal 2	145.1 ± 2.3
223 K, Crystal 2	154 ± 2.5
228 K, Crystal 2	162.5 ± 2.5
233 K, Crystal 2	175 ± 2.7
238 K, Crystal 2	183.4 ± 2.9
243 K, Crystal 2	195.4 ± 3.1
248 K, Crystal 2	200.8 ± 3.1
253 K, Crystal 2	199.8 ± 3.1
258 K, Crystal 2	196.2 ± 3
263 K, Crystal 2	191.6 ± 3.2
268 K, Crystal 2	185.8 ± 3.2
273 K, Crystal 2	189.4 ± 2.9
278 K, Crystal 2	187.1 ± 2.9
283 K, Crystal 2	188.4 ± 3
288 K, Crystal 2	188.4 ± 3
293 K, Crystal 2	190 ± 3.1
298 K, Crystal 2	190.3 ± 2.9
303 K, Crystal 2	192.6 ± 3.1
308 K, Crystal 2	196.4 ± 3.2
313 K, Crystal 2	198.4 ± 3.3
318 K, Crystal 2	202.5 ± 3.2
323 K, Crystal 2	204.5 ± 3.2

CCCCCCCCCCCCCCCCCCCCCC(N)=O [docosanamide]
Crystal
Settings	Molar enthalpy of transition or fusion	Normal melting temperature
[1]	63.3 kJ/mol and 64.7 kJ/mol	–
[3]	–	110.2 ± 0.5 °C and 111.8 ± 1 °C

[2], Crystal
Settings	molar heat capacity at constant pressure [J/K/mol]
228 K	420.4 ± 6.6
233 K	431.8 ± 6.7
238 K	439.8 ± 6.8
243 K	449.2 ± 7
248 K	461.3 ± 7.2
253 K	470.1 ± 7.3
258 K	480.5 ± 7.5
263 K	493 ± 7.7
268 K	500.2 ± 7.8
273 K	511.9 ± 8
278 K	523.7 ± 8.2
283 K	539.7 ± 8.4
288 K	548.1 ± 8.5
293 K	561.1 ± 8.7
298 K	568.7 ± 8.8

CC(C)C(N)=O [2-methylpropanamide]
Crystal
Settings	Molar enthalpy of transition or fusion	Normal melting temperature
[1]	19.2 kJ/mol and 19.3 kJ/mol	–
[3]	–	127.0 ± 0.4 °C and 127.2 ± 0.4 °C

[2], Crystal
Settings	molar heat capacity at constant pressure [J/K/mol]
183 K	100.8 ± 1.9
188 K	102.9 ± 2.3
193 K	105 ± 1.8
198 K	107.1 ± 1.8
203 K	110.5 ± 2.4
208 K	112.4 ± 2.3
213 K	114 ± 2.3
218 K	115.6 ± 2.4
223 K	118.7 ± 2.1
228 K	120.3 ± 1.9
233 K	122.8 ± 2.4
238 K	124.8 ± 1.9
243 K	127.3 ± 2.4
248 K	130.8 ± 2
253 K	132.6 ± 2.6
258 K	134.6 ± 2.5
263 K	137.6 ± 2.7
268 K	138.8 ± 2.7
273 K	141.9 ± 2.7
278 K	144.6 ± 2.6
283 K	146.5 ± 2.4
288 K	148.5 ± 2.6
293 K	150.9 ± 2.5
298 K	152.4 ± 2.7
303 K	154.1 ± 2.8
308 K	158 ± 2.7
313 K	160.2 ± 2.5
318 K	162.7 ± 2.9
323 K	164.5 ± 2.9

CCCCCCCCCCCC(N)=O [dodecanamide]
Settings	Molar enthalpy of transition or fusion, [1]	Normal melting temperature, [3]	Triple point temperature, [3]
Crystal 1	36.3 kJ/mol and 35.7 kJ/mol	100.2 ± 0.4 °C and 100.7 ± 1 °C	–
Crystal 2	9.7 kJ/mol and 9 kJ/mol	–	321.1 ± 0.4 K and 322 ± 0.9 K

[2], Crystal 2
Settings	molar heat capacity at constant pressure [J/K/mol]
198 K	213.3 ± 3.3
203 K	217.8 ± 3.6
208 K	223.3 ± 3.6
213 K	227.1 ± 3.7
218 K	231.8 ± 3.8
223 K	237.5 ± 3.7
228 K	242.2 ± 3.9
233 K	245.9 ± 3.8
238 K	251.2 ± 4
243 K	258.4 ± 4
248 K	263 ± 4.1
253 K	269.2 ± 4.2
258 K	274.3 ± 4.3
263 K	280.8 ± 4.4

CCC(N)=O [propanamide]
Crystal
Settings	Molar enthalpy of transition or fusion [kJ/mol]	Normal melting temperature [°C]
[1]	12.9 ± 1.1	–
[3]	–	79.5 ± 0.4

CCCCCCCCCCCCCCCCCC(N)=O [octadecanamide]
Settings	Molar enthalpy of transition or fusion, [1]	Normal melting temperature, [3]	Triple point temperature, [3] [K]
Crystal 1	54.8 kJ/mol and 55.1 kJ/mol	106.6 ± 0.5 °C and 107 ± 0.9 °C	–
Crystal 2	2.2 ± 0.3 kJ/mol	–	298.7 ± 0.7

[2], Crystal 2
Settings	molar heat capacity at constant pressure [J/K/mol]
208 K	318.2 ± 5
213 K	328.5 ± 5.1
218 K	336.6 ± 5.2
223 K	345.2 ± 5.4
228 K	353.1 ± 5.5
233 K	360.8 ± 5.6
238 K	367.6 ± 5.7
243 K	375.8 ± 5.9
248 K	385.6 ± 6
253 K	393.6 ± 6.1
258 K	403.2 ± 6.3

CCCCCCCC(N)=O [octanamide]
Settings	Molar enthalpy of transition or fusion, Crystal 1	Molar enthalpy of transition or fusion, Crystal 2	Molar enthalpy of transition or fusion, Crystal 3 [kJ/mol]	Normal melting temperature, Crystal 1	Triple point temperature, Crystal 2	Triple point temperature, Crystal 3 [K]
[1]	27.6 kJ/mol and 27.2 kJ/mol	0.97 kJ/mol and 0.99 kJ/mol	1.91 ± 0.15	–	–	–
[3]	–	–	–	104 ± 1 °C and 104.6 ± 0.4 °C	304.5 ± 0.7 K and 304.5 ± 0.4 K	194.4 ± 1.7

[2]
Settings	molar heat capacity at constant pressure [J/K/mol]
183 K, Crystal 3	164.7 ± 2.6
188 K, Crystal 3	169 ± 2.8
193 K, Crystal 3	174.2 ± 2.7
198 K, Crystal 2	180.6 ± 2.9
203 K, Crystal 2	189.7 ± 3
208 K, Crystal 2	197.1 ± 3.2
213 K, Crystal 2	204.6 ± 3.3
218 K, Crystal 2	213.2 ± 3.4
223 K, Crystal 2	224.4 ± 3.5
228 K, Crystal 2	228.2 ± 3.5
233 K, Crystal 2	232.8 ± 3.7
238 K, Crystal 2	234.3 ± 3.6
243 K, Crystal 2	235.1 ± 3.6
248 K, Crystal 2	236.3 ± 3.8
253 K, Crystal 2	233.9 ± 3.6
258 K, Crystal 2	236.1 ± 3.8
263 K, Crystal 2	238.3 ± 3.7
268 K, Crystal 2	235.4 ± 3.8
273 K, Crystal 2	241.2 ± 3.8
278 K, Crystal 2	242.7 ± 3.8
283 K, Crystal 2	243.9 ± 3.8
288 K, Crystal 2	244.9 ± 3.8
293 K, Crystal 2	246.5 ± 3.8
298 K, Crystal 2	245.1 ± 3.8
303 K, Crystal 2	246.7 ± 3.8
308 K, Crystal 1	249.3 ± 3.9
313 K, Crystal 1	251.8 ± 4

CCCCCCCCCC(N)=O [decanamide]
Settings	Molar enthalpy of transition or fusion, Crystal 1	Molar enthalpy of transition or fusion, Crystal 2	Molar enthalpy of transition or fusion, Crystal 3 [kJ/mol]	Normal melting temperature, Crystal 1	Triple point temperature, Crystal 2	Triple point temperature, Crystal 3
[1]	15.1 kJ/mol and 17.4 kJ/mol	18.8 kJ/mol and 21.1 kJ/mol	1.05	–	–	–
[3]	–	–	–	97.5 ± 0.8 °C and 97.8 ± 0.4 °C	366.3 ± 1 K and 366.9 ± 0.7 K	218.7 ± 0.6 K and 218.7 ± 0.4 K

[2], Crystal 2
Settings	molar heat capacity at constant pressure [J/K/mol]
263 K	236.4 ± 3.7
268 K	238.5 ± 3.7
273 K	247.6 ± 3.9
278 K	251.1 ± 3.9
283 K	260.7 ± 4.1
288 K	266.4 ± 4.2
293 K	270.2 ± 4.2
298 K	272.4 ± 4.2
303 K	278.5 ± 4.4
308 K	287 ± 4.5
313 K	291.6 ± 4.6
318 K	297.9 ± 4.7
323 K	304.4 ± 4.8

CCCCCC(N)=O [hexanamide]
Settings	Molar enthalpy of transition or fusion, [1]	Normal melting temperature, [3]	Triple point temperature, [3]
Crystal 1	16.7 kJ/mol and 17.6 kJ/mol	100 ± 0.4 °C and 100 ± 0.9 °C	–
Crystal 2	7.9 kJ/mol	–	305.1 ± 0.4 K and 306 ± 0.7 K

[2], Crystal 2
Settings	molar heat capacity at constant pressure [J/K/mol]
183 K	119.1 ± 2.1
188 K	121.1 ± 2.4
193 K	126.6 ± 2.2
198 K	128.6 ± 2
203 K	132.5 ± 2.4
208 K	135.8 ± 2.2
213 K	138.8 ± 2.2
218 K	142.1 ± 2.2
223 K	146.7 ± 2.3
228 K	150.8 ± 2.4
233 K	155.3 ± 2.4
238 K	160.1 ± 2.5
243 K	165.6 ± 2.7
248 K	169.6 ± 2.6
253 K	173.1 ± 2.9

CCCC(N)=O [butanamide]
Settings	Molar enthalpy of transition or fusion, [1] [kJ/mol]	Normal melting temperature, [3] [°C]
Crystal	19.2 ± 1.3	114.2 ± 0.9
Crystal 1	19.6 ± 0.5	114.2 ± 0.4

[2], Crystal
Settings	molar heat capacity at constant pressure [J/K/mol]
183 K	96.4 ± 2
188 K	98.3 ± 2.1
193 K	101.7 ± 2.3
198 K	104.1 ± 1.9
203 K	106.4 ± 1.8
208 K	108 ± 1.9
213 K	109.7 ± 2
218 K	112.5 ± 2.4
223 K	114.3 ± 2.4
228 K	116 ± 2.2
233 K	118.1 ± 2.1
238 K	120.8 ± 2.3
243 K	123 ± 2.4
248 K	125.9 ± 2.4
253 K	127.4 ± 2.4
258 K	130.2 ± 2.2
263 K	132.4 ± 2.6
268 K	135 ± 2.1
273 K	136.8 ± 2.6
278 K	139.3 ± 2.4
283 K	141.5 ± 2.7
288 K	143.7 ± 2.5
293 K	146.4 ± 2.6
298 K	147.7 ± 2.3
303 K	150.3 ± 2.5
308 K	153.5 ± 2.5
313 K	155 ± 2.4
318 K	158.8 ± 2.7
323 K	161.4 ± 2.5

CCCCCCCCCCCCCCCC(N)=O [hexadecanamide]
Settings	Molar enthalpy of transition or fusion, [1]	Normal melting temperature, [3]	Triple point temperature, [3]
Crystal 1	45.4 kJ/mol and 45.2 kJ/mol	103 ± 0.8 °C and 102.5 ± 0.8 °C	–
Crystal 2	10.4 kJ/mol and 10.3 kJ/mol	–	355.5 ± 0.8 K and 356.1 ± 0.5 K

[2], Crystal 2
Settings	molar heat capacity at constant pressure [J/K/mol]
208 K	267.5 ± 4.3
213 K	273.7 ± 4.7
218 K	276.5 ± 4.6
223 K	282.8 ± 4.5
228 K	289 ± 4.8
233 K	297.1 ± 4.8
238 K	302.6 ± 4.9
243 K	310.3 ± 4.9
248 K	319.5 ± 5.1
253 K	323.8 ± 5.2
258 K	331.6 ± 5.4
263 K	340.1 ± 5.5
268 K	348.1 ± 5.5
273 K	357.9 ± 5.6
278 K	364.8 ± 5.9
283 K	371.6 ± 5.9
288 K	378.1 ± 6
293 K	387.6 ± 6.1
298 K	394.3 ± 6.1
303 K	401.8 ± 6.4
